Experimental data: the supplement of paper PMC4862054

Columns and labels:
Conditions in all cases: 72 h
CAL-120 [1] = system: CAL-120
Procedure, shortened: (§1)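 Breast cancer cell lines in 20 µl suspension were seeded onto 384-well plates that already held compound dissolved in 5 µl medium and were incubated for 72 h. Viability was measured by adding 2.5 µl CellTiter-Blue for 2 h at 37 °C and reading fluorescence at 560/590 nm. Each plate was normalised to vehicle and a positive kill control and checked by Z'-factor. EC50 was taken from a fitted percent-inhibition dose-response curve, censored at the highest concentration, and rows with a drug sensitivity score of zero were removed.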

HCC1937 [2] = system: HCC1937
Procedure, shortened: as §1

HCC1143 [3] = system: HCC1143
Procedure, shortened: as §1

HCC1599 [4] = system: HCC1599
Procedure, shortened: as §1

BT-549 [5] = system: BT-549
Procedure, shortened: as §1

MFM-223 [6] = system: MFM-223
Procedure, shortened: as §1

Hs578T [7] = system: Hs578T
Procedure, shortened: as §1

SK-BR-3 [8] = system: SK-BR-3
Procedure, shortened: as §1

BT-474 [9] = system: BT-474
Procedure, shortened: as §1

MDA-MB-468 [10] = system: MDA-MB-468
Procedure, shortened: as §1

MDA-MB-436 [11] = system: MDA-MB-436
Procedure, shortened: as §1

MDA-MB-231 [12] = system: MDA-MB-231
Procedure, shortened: as §1

CAL-51 [13] = system: CAL-51
Experimental: (§2)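 Drug sensitivity and resistance testing (DSRT) of breast cancer cell lines in 384-well plates, 5 concentrations in 10-fold dilutions over a compound-specific 10,000-fold range. After 72 h, cytotoxicity was read by CellTox Green fluorescence and viability by CellTiter-Glo luminescence (multiplexed), normalised to DMSO and benzethonium chloride controls. EC50 is the inflection point of the fitted dose-response curve (bottom asymptote free, so it can be relative for partial curves) and is censored at the highest tested concentration. Rows with DSS 0 (no meaningful response) were excluded.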

MDA-MB-468 [14] = system: MDA-MB-468; remark: listed apart in the source
Experimental: as §2

MDA-MB-436 [15] = system: MDA-MB-436; remark: listed apart in the source
Experimental: as §2

CAL-120 [16] = system: CAL-120; remark: listed apart in the source
Procedure, shortened: (§3)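 Breast cancer cell lines in 20 µl suspension were added to 384-well plates already holding compound at 5 concentrations, spaced in 10-fold steps across a compound-specific 10,000-fold range, and incubated for 72 h. CellTox Green fluorescence (485/520 nm) was read first to measure cell death, followed by CellTiter-Glo luminescence for viability after 10 min at room temperature. Each plate was normalised to 0.1 % DMSO and a positive kill control. EC50 values came from dose-response curve fits and were censored at the top concentration.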

CAL-51 [17] = system: CAL-51; remark: listed apart in the source
Procedure, shortened: as §3

HCC1937 [18] = system: HCC1937; remark: listed apart in the source
Procedure, shortened: as §3

DU-4475 = system: DU-4475
Procedure, shortened: as §3

CAL-85-1 = system: CAL-85-1
Procedure, shortened: as §3

HCC1143 [19] = system: HCC1143; remark: listed apart in the source
Procedure, shortened: as §3

HCC1599 [20] = system: HCC1599; remark: listed apart in the source
Procedure, shortened: as §3

BT-549 [21] = system: BT-549; remark: listed apart in the source
Procedure, shortened: as §3

MFM-223 [22] = system: MFM-223; remark: listed apart in the source
Procedure, shortened: as §3

MCF-10A = system: MCF-10A
Procedure, shortened: as §3

Hs578T [23] = system: Hs578T; remark: listed apart in the source
Procedure, shortened: as §3

SK-BR-3 [24] = system: SK-BR-3; remark: listed apart in the source
Procedure, shortened: as §3

MDA-MB-453 = system: MDA-MB-453
Procedure, shortened: as §3

BT-474 [25] = system: BT-474; remark: listed apart in the source
Procedure, shortened: as §3

MDA-MB-468 [26] = system: MDA-MB-468; remark: listed apart in the source
Procedure, shortened: as §3

MDA-MB-436 [27] = system: MDA-MB-436; remark: listed apart in the source
Procedure, shortened: as §3

MDA-MB-231 [28] = system: MDA-MB-231; remark: listed apart in the source
Procedure, shortened: as §3

HDQ-P1 [29] = system: HDQ-P1
Procedure, shortened: as §3

CAL-148 = system: CAL-148
Procedure, shortened: as §3

MFM-223 [30] = system: MFM-223; remark: listed apart in the source
Experimental: as §2

BT-474 [31] = system: BT-474; remark: listed apart in the source
Experimental: as §2

MDA-MB-231 [32] = system: MDA-MB-231; remark: listed apart in the source
Experimental: as §2

HDQ-P1 [33] = system: HDQ-P1; remark: listed apart in the source
Experimental: as §2

EC50, CellTiter-Blue viability (HCC1937 [2])	EC50, CellTiter-Blue viability (HCC1143 [3])	EC50, CellTiter-Blue viability (HCC1599 [4])	EC50, CellTiter-Blue viability (BT-549 [5])	EC50, CellTiter-Blue viability (SK-BR-3 [8])	EC50, CellTiter-Blue viability (BT-474 [9])	EC50, CellTiter-Blue viability (MDA-MB-468 [10])	EC50, CellTiter-Blue viability (MDA-MB-436 [11])	EC50, CellTiter-Blue viability (MDA-MB-231 [12])	EC50, CellTiter-Glo (HCC1937 [18])	EC50, CellTiter-Glo (HCC1143 [19])	EC50, CellTiter-Glo (HCC1599 [20])	EC50, CellTiter-Glo (BT-549 [21])	EC50, CellTiter-Glo (SK-BR-3 [24])	EC50, CellTiter-Glo (MDA-MB-453)	EC50, CellTiter-Glo (BT-474 [25])	EC50, CellTiter-Glo (MDA-MB-468 [26])	EC50, CellTiter-Glo (MDA-MB-436 [27])	EC50, CellTiter-Glo (MDA-MB-231 [28])	Compound	EC50, CellTiter-Blue viability (CAL-120 [1])	EC50, CellTiter-Blue viability (MFM-223 [6])	EC50, CellTiter-Blue viability (Hs578T [7])	EC50, CellTox Green (CAL-51 [13])	EC50, CellTox Green (MDA-MB-468 [14])	EC50, CellTox Green (MDA-MB-436 [15])	EC50, CellTiter-Glo (CAL-120 [16])	EC50, CellTiter-Glo (CAL-51 [17])	EC50, CellTiter-Glo (DU-4475)	EC50, CellTiter-Glo (CAL-85-1)	EC50, CellTiter-Glo (MFM-223 [22])	EC50, CellTiter-Glo (MCF-10A)	EC50, CellTiter-Glo (Hs578T [23])	EC50, CellTiter-Glo (HDQ-P1 [29])	EC50, CellTiter-Glo (CAL-148)	EC50, CellTox Green (MFM-223 [30])	EC50, CellTox Green (BT-474 [31])	EC50, CellTox Green (MDA-MB-231 [32])	EC50, CellTox Green (HDQ-P1 [33])
24.7 nM	46.8 nM	444 nM	141 nM	66.4 nM	160 nM	98.2 nM	78.5 nM	56.1 nM	692 nM	535 nM	570 nM	129 nM	254 nM	470 nM	169 nM	109 nM	175 nM	221 nM	COc1cccc2c1C(=O)c1c(O)c3c(c(O)c1C2=O)C[C@@](O)(C(C)=O)C[C@@H]3O[C@H]1C[C@H](N)[C@H](O)[C@H](C)O1 [Daunorubicin]	41.8 nM	667 nM	150 nM	183 nM	100 nM	953 nM	227 nM	84.2 nM	211 nM	380 nM	784 nM	633 nM	229 nM	519 nM	134 nM	–	–	–	–
–	–	2520 nM	1240 nM	532 nM	–	> 10000 nM	7520 nM	2880 nM	–	–	–	–	556 nM	–	–	–	425 nM	–	O=c1[nH]cc(F)c(=O)[nH]1 [Fluorouracil]	2530 nM	–	–	–	–	7050 nM	–	–	–	272 nM	–	–	–	–	–	–	–	–	–
–	–	–	–	–	–	–	–	–	2730 nM	1130 nM	538 nM	396 nM	206 nM	492 nM	3040 nM	677 nM	498 nM	720 nM	FC(F)c1nc2ccccc2n1-c1nc(N2CCOCC2)nc(N2CCOCC2)n1 [ZSTK474]	–	–	–	–	–	–	958 nM	1010 nM	6590 nM	779 nM	737 nM	540 nM	493 nM	436 nM	1260 nM	1780 nM	> 10000 nM	–	–
371 nM	–	–	–	–	–	–	–	–	–	–	–	–	–	–	–	–	–	–	CN1CCN(c2ccc3nc(-c4c(N)c5c(F)cccc5[nH]c4=O)[nH]c3c2)CC1 [Dovitinib]	–	–	–	–	–	–	> 10000 nM	–	–	–	–	–	–	–	–	–	–	–	–
–	–	–	–	–	–	–	–	–	–	–	–	947 nM	–	–	709 nM	3560 nM	–	–	Cc1cc(C(C)Nc2ccccc2)c2nc(N3CCOCC3)cc(=O)n2c1 (stereo not given) [TGX-221]	–	–	–	–	–	–	> 10000 nM	22.8 nM	–	–	–	–	–	–	–	–	–	> 10000 nM	1 nM
